According to article PMC11562704, “Volatiles extracted from Melaleuca Rugulosa (Link) Craven leaves: comparative profiling, bioactivity screening, and metabolomic analysis” (BMC Complementary Medicine and Therapies, 2024):
Values after ≈ are worked out from the molar mass of the structure shown.

Biological target: T1, Type 1 collagenase enzyme
T1 construct: gene colG; native collagenase preparation isolated from the bacterium; type 1 is normally a mixture of ColG and ColH
Assay: FALGPA hydrolysis, ninhydrin absorbance at […] nm
Type: biochemical, Hathewaya histolytica
Details: FALGPA substrate; 50 mM tricine pH 7.4; 37 °C; 20 min preincubation

In the case of O=C(O)CN(CCN(CC(=O)O)CC(=O)O)CC(=O)O [EDTA], the “IC50 ± SD (inhibition percentage (IP) ± SD) / Anti-collagenase” value is reported as 315.12 ± 2.21 µg/mL (≈ 1080 µM).
